Experimental data: the NIST ThermoML archive (doi:10.1021/je060271a)
Where “and” joins values, the source holds several entries; their conditions need not be identical. Identical values can stand only once.

Details: 343.15 K, Liquid, Vibrating tube method

CCCCCCC(=O)OCC(COC(=O)CCCCCC)(COC(=O)CCCCCC)COC(=O)CCCCCC [pentaerythritol tetraheptanoate]
Details | mass density
4113.8 kPa | 943.7 kg/m3
4138.8 kPa | 943.6 kg/m3
4164 kPa | 943.7 kg/m3
4194.7 kPa | 943.7 kg/m3
4220.3 kPa | 943.6 kg/m3
4246.6 kPa | 943.7 kg/m3
4273.8 kPa | 943.8 kg/m3
4305 kPa | 943.9 kg/m3
4331.3 kPa | 943.9 kg/m3
4358.7 kPa | 944 kg/m3
4390.2 kPa | 943.8 kg/m3
4413.2 kPa | 943.8 kg/m3
4545.2 kPa | 943.9 kg/m3
4545.5 kPa | 944.1 kg/m3
4546 kPa | 943.9 kg/m3
4546.2 kPa | 944 kg/m3
4546.5 kPa | 944 kg/m3
4547.2 kPa | 944 kg/m3
4547.4 kPa | 944.1 kg/m3
4547.6 kPa | 944 kg/m3
4547.8 kPa | 944.1 kg/m3
4547.9 kPa | 944.1 kg/m3
4548.3 kPa | 944 kg/m3 and 944.1 kg/m3
4548.4 kPa | 944 kg/m3 and 943.9 kg/m3
4548.6 kPa | 944 kg/m3
4548.8 kPa | 944 kg/m3 and 944.1 kg/m3
4549 kPa | 943.9 kg/m3 and 944 kg/m3
4549.1 kPa | 944.2 kg/m3 and 944.1 kg/m3 and 944 kg/m3
4549.3 kPa | 944 kg/m3 and 944.1 kg/m3 and 943.9 kg/m3
4549.5 kPa | 944 kg/m3
4549.7 kPa | 944.1 kg/m3 and 944 kg/m3
4549.8 kPa | 944.1 kg/m3
4549.9 kPa | 944.1 kg/m3 and 944 kg/m3
4550 kPa | 944 kg/m3
4550.1 kPa | 944 kg/m3 and 944.1 kg/m3
4550.2 kPa | 944.1 kg/m3 and 944 kg/m3 and 943.9 kg/m3
4550.4 kPa | 944 kg/m3
4550.5 kPa | 944 kg/m3
4550.7 kPa | 944.1 kg/m3
4550.9 kPa | 944 kg/m3 and 944.2 kg/m3
4551 kPa | 944 kg/m3 and 944.1 kg/m3
4551.2 kPa | 944.1 kg/m3 [middle of 4 runs]
4551.4 kPa | 944 kg/m3 and 944.1 kg/m3
4551.5 kPa | 944 kg/m3
4551.7 kPa | 944.1 kg/m3 and 944 kg/m3
4551.9 kPa | 944 kg/m3 and 944.1 kg/m3
4552.1 kPa | 944 kg/m3 and 944.1 kg/m3
4552.2 kPa | 944.1 kg/m3 and 944 kg/m3 and 944.2 kg/m3
4552.3 kPa | 944.1 kg/m3
4552.4 kPa | 944 kg/m3 and 944.1 kg/m3
4552.6 kPa | 944 kg/m3 and 944.1 kg/m3
4552.8 kPa | 944.1 kg/m3 and 943.9 kg/m3 and 944 kg/m3
4553 kPa | 944 kg/m3 and 943.9 kg/m3 and 944.1 kg/m3
4553.1 kPa | 944.1 kg/m3 [middle of 4 runs]
4553.3 kPa | 944 kg/m3 and 944.1 kg/m3
4553.5 kPa | 944.1 kg/m3 and 944 kg/m3
4553.7 kPa | 944 kg/m3 and 944.1 kg/m3
4553.8 kPa | 944 kg/m3 and 944.1 kg/m3
4554 kPa | 944 kg/m3 and 944.1 kg/m3
4554.2 kPa | 944.1 kg/m3 and 944 kg/m3
4554.3 kPa | 944 kg/m3
4554.5 kPa | 944.1 kg/m3 and 944 kg/m3
4554.7 kPa | 944.1 kg/m3 and 943.9 kg/m3
4554.9 kPa | 944.2 kg/m3 and 944 kg/m3 and 943.9 kg/m3
4555 kPa | 944 kg/m3 and 944.1 kg/m3
4555.2 kPa | 944 kg/m3 and 944.1 kg/m3
4555.4 kPa | 944.1 kg/m3 and 944 kg/m3 and 943.9 kg/m3
4555.5 kPa | 944.2 kg/m3 and 944 kg/m3 and 944.1 kg/m3
4555.7 kPa | 944 kg/m3
4555.9 kPa | 944 kg/m3 and 944.1 kg/m3
4556.1 kPa | 944 kg/m3
4556.2 kPa | 944 kg/m3 and 944.1 kg/m3
4557.6 kPa | 944 kg/m3
4559 kPa | 944.1 kg/m3
4559.2 kPa | 944 kg/m3 and 943.9 kg/m3
4559.3 kPa | 943.9 kg/m3
4559.7 kPa | 944.1 kg/m3 and 944.2 kg/m3
4559.9 kPa | 944.1 kg/m3
4560 kPa | 944.1 kg/m3
4560.9 kPa | 944.1 kg/m3
4564.5 kPa | 944 kg/m3
4567.8 kPa | 944 kg/m3
4571.1 kPa | 944.2 kg/m3
4574.9 kPa | 944 kg/m3
4578.4 kPa | 944.1 kg/m3
4581.7 kPa | 944 kg/m3
4584.6 kPa | 943.9 kg/m3
4588.4 kPa | 944 kg/m3
4591.7 kPa | 944.1 kg/m3
4595.2 kPa | 944.1 kg/m3
4598.3 kPa | 944.1 kg/m3
4602.3 kPa | 944.1 kg/m3
4605.4 kPa | 943.9 kg/m3
4608.7 kPa | 944.1 kg/m3
4612.7 kPa | 944.2 kg/m3
4616.3 kPa | 944 kg/m3
4619.4 kPa | 944.1 kg/m3
4622.7 kPa | 944.1 kg/m3
4626.7 kPa | 944.2 kg/m3
4630 kPa | 944 kg/m3
4633.1 kPa | 944.1 kg/m3
4637.3 kPa | 944.2 kg/m3
4640.7 kPa | 944.1 kg/m3
4644 kPa | 944.1 kg/m3
4647.3 kPa | 944.1 kg/m3
4651.3 kPa | 944 kg/m3
4654.6 kPa | 944.1 kg/m3
4658.4 kPa | 944 kg/m3
4662 kPa | 944.1 kg/m3
4665.5 kPa | 944.2 kg/m3
4669.3 kPa | 944.1 kg/m3
4672.9 kPa | 944.2 kg/m3
4676.2 kPa | 944.1 kg/m3
4680 kPa | 944.2 kg/m3
4683.3 kPa | 944.1 kg/m3
4687.3 kPa | 944.1 kg/m3
4690.8 kPa | 944.1 kg/m3
4693.9 kPa | 944.2 kg/m3
4698.2 kPa | 944.2 kg/m3
4701.7 kPa | 944.1 kg/m3
4705 kPa | 944.2 kg/m3
4708.9 kPa | 944.2 kg/m3
4712.2 kPa | 944.2 kg/m3
4715.9 kPa | 944.1 kg/m3
4719.3 kPa | 944.1 kg/m3
4723.7 kPa | 944.1 kg/m3
4726.4 kPa | 944.2 kg/m3
4730.1 kPa | 944.2 kg/m3
4733.2 kPa | 944.2 kg/m3
4737.5 kPa | 944.3 kg/m3
4741 kPa | 944.2 kg/m3
4744.3 kPa | 944.2 kg/m3
4747.7 kPa | 944.2 kg/m3
4752.2 kPa | 944 kg/m3
4755.3 kPa | 944.1 kg/m3
4759 kPa | 944.1 kg/m3
4763.1 kPa | 944.1 kg/m3
4766.6 kPa | 944.2 kg/m3
4770.2 kPa | 944.3 kg/m3
4774.2 kPa | 944.2 kg/m3
4777.7 kPa | 944.3 kg/m3
4781.6 kPa | 944.1 kg/m3
4785.1 kPa | 944.2 kg/m3
4788.7 kPa | 944.4 kg/m3
4792.9 kPa | 944.3 kg/m3
4796.7 kPa | 944.2 kg/m3
4800 kPa | 944.2 kg/m3
4804.5 kPa | 944.2 kg/m3
4807.9 kPa | 944.3 kg/m3
4811.2 kPa | 944.2 kg/m3
4815.9 kPa | 944.1 kg/m3
4819.4 kPa | 944.2 kg/m3
4823.2 kPa | 944.2 kg/m3
4826.8 kPa | 944.3 kg/m3
4831 kPa | 944.2 kg/m3
4834.6 kPa | 944.2 kg/m3
4838.2 kPa | 944.2 kg/m3
4842 kPa | 944.1 kg/m3
4846.4 kPa | 944.4 kg/m3
4849.8 kPa | 944.2 kg/m3
4853.5 kPa | 944.2 kg/m3
4857.8 kPa | 944.3 kg/m3
4861.9 kPa | 944.3 kg/m3
4865.4 kPa | 944.3 kg/m3
4869.2 kPa | 944.3 kg/m3
4872.8 kPa | 944.2 kg/m3
4877.3 kPa | 944.3 kg/m3
4881 kPa | 944.3 kg/m3
4884.8 kPa | 944.3 kg/m3
4889.1 kPa | 944.2 kg/m3
4892.9 kPa | 944.2 kg/m3
4896.6 kPa | 944.3 kg/m3
4901.2 kPa | 944.3 kg/m3
4905 kPa | 944.3 kg/m3
4908.5 kPa | 944.2 kg/m3
4913 kPa | 944.2 kg/m3
4916.8 kPa | 944.3 kg/m3
4920.4 kPa | 944.2 kg/m3
4924.1 kPa | 944.3 kg/m3
4928.6 kPa | 944.4 kg/m3
4932.2 kPa | 944.4 kg/m3
4936 kPa | 944.3 kg/m3
4940.7 kPa | 944.3 kg/m3
4944.5 kPa | 944.3 kg/m3
4948.5 kPa | 944.4 kg/m3
4952.3 kPa | 944.3 kg/m3
4956.8 kPa | 944.4 kg/m3
4960.4 kPa | 944.2 kg/m3
4964.6 kPa | 944.3 kg/m3
4968.4 kPa | 944.3 kg/m3
4972.4 kPa | 944.2 kg/m3
4977 kPa | 944.2 kg/m3
4980.7 kPa | 944.5 kg/m3
4985.5 kPa | 944.4 kg/m3
4989.3 kPa | 944.4 kg/m3
4993.1 kPa | 944.3 kg/m3
4996.9 kPa | 944.4 kg/m3
5001.4 kPa | 944.3 kg/m3
5005.4 kPa | 944.4 kg/m3
5009.1 kPa | 944.3 kg/m3
5014.1 kPa | 944.4 kg/m3
5018.1 kPa | 944.4 kg/m3
5022 kPa | 944.4 kg/m3
5027 kPa | 944.4 kg/m3
5030.1 kPa | 944.4 kg/m3
5035.7 kPa | 944.4 kg/m3
5043.5 kPa | 944.3 kg/m3
5047.3 kPa | 944.4 kg/m3
5051.4 kPa | 944.4 kg/m3
5054.7 kPa | 944.3 kg/m3
5058.5 kPa | 944.5 kg/m3
5065.1 kPa | 944.5 kg/m3
5069.1 kPa | 944.4 kg/m3
5072.9 kPa | 944.4 kg/m3
5077 kPa | 944.4 kg/m3
5080.4 kPa | 944.4 kg/m3
5085.2 kPa | 944.4 kg/m3
5089.2 kPa | 944.5 kg/m3
5093.4 kPa | 944.5 kg/m3
5098.2 kPa | 944.4 kg/m3
5102.2 kPa | 944.3 kg/m3
5105.8 kPa | 944.4 kg/m3
5109.6 kPa | 944.5 kg/m3
